Patent publication US20060282906A1, “Non-transgenic rodent model of Alzheimer's disease” (priority 2005, published 2006)
Marks after values point to notes of the source that are not given here. Where no end group is shown, it is not given here.

Legend:
Male Wistar rats [1] = test: Immunohistochemistry of rat brain sections, grading scale of staining size and intensity; format: in vivo; set-up: key to NKκB(p65) immunostaining signal / COX-2 immunostaining signal / GFAP immunostaining signal / OX-6 immunostaining signal / APP immunostaining signal / Tau-2 immunostaining signal / TNFα immunostaining signal / Cas-3 immunostaining signal: n.s.: no positive staining; +: moderate immunostaining signal; ++: strong immunostaining signal; +++: strongest immunostaining signal
Procedure: (§1) Male Wistar rats (250 to 300 grams; Charles River, Montreal, Quebec) were divided into 4 groups: intracerebroventricular injections of Aβ(25-35) (BACHEM, Torrance, Calif.); endothelin injections into the right striatum; both Aβ(25-35) and striatal endothelin injections; and sham procedures. The Aβ(25-35) fragment was used to reduce the possibility of rapid coagulation and to allow diffusion of the peptide into the brain.
(§2) All rats were anesthetized using 40 mg/kg of pentobarbital (Somnotol; MTC Pharmaceuticals, Cambridge, Ontario) intraperitoneally. Body temperature was maintained at 37° C. Aβ(25-35) (50 nmol in 10 μL of saline) was injected bilaterally into the lateral ventricles. Aβ(25-35) was prepared according to established methods (Sigurdsson, et al. (1997) supra). Aβ(25-35) (50 nmol in 10 μL of saline at a rate of 1 μL/minute) was injected bilaterally into the lateral ventricles via a stainless-steel cannula (23-gauge; anterior/posterior −0.8, medial/lateral ±1.4, and dorsal/ventral −4.0 below dura). Two endothelin injections (6 pmol in 3 μL of saline), 1 mm apart, were made into the right striatum (Sigurdsson, et al. (1997) supra). Sham procedures involved all the surgical steps without injections of Aβ(25-35) or endothelin. After wound suture, all rats received 40 mg/kg of buprenorphine intramuscularly and were allowed to recover from surgery for 7 days.
(§3) Twenty-one days after surgery, all animals were euthanized via pentobarbital overdose and perfused transaortically first with saline followed by 4% formaldehyde (pH 7.4). The brains were removed and cryoprotected in 30% sucrose for 36 hours at 4° C. Coronal sections (30 pm) were cut using a cryostat.
(§4) Free-floating sections from rat brains (n=5 for each group) were treated with 0.03% hydrogen peroxide and blocked with 3 mL of horse or rabbit serum (VECTASTAIN® Elite, Vector Laboratories, Burlingame, Calif.). The following primary antibodies were diluted in filtered phosphate-buffered saline: APPa4 mouse monoclonal (Chemicon International Inc, Temecula, Calif.; 1:1000), GFAP mouse monoclonal (Sigma-Aldrich, St Louis, Mo.; 1:1000), OX-6 mouse monoclonal (Serotec, Inc., Raleigh, N.C.; 1:1000), Tau-2 mouse monoclonal (Sigma-Aldrich, St Louis, Mo.; 1:10000), NFκB(p65) goat polyclonal (Santa Cruz Biotechnologies, Santa Cruz, Calif.; 1:1000), IL-1β goat polyclonal (Santa Cruz Biotechnologies, Santa Cruz, Calif.; 1:1000), and TNF-α-M18 goat polyclonal (Santa Cruz Biotechnologies, Santa Cruz, Calif.; 1:1000). APP-, Tau-2-, GFAP-, and OX-6-stained sections were incubated with 3 mL of horse biotinylated anti-mouse secondary antibody and horse serum. NFκB(p65), IL-1β, and TNF-α-stained sections were incubated with 3 mL of biotinylated rabbit anti-goat secondary antibody and rabbit serum. Sections were then incubated in 3 mL of avidin-biotin complex followed by 0.05% diaminobenzidine. Sections were washed, air-dried, cleared in xylene, and cover-slipped. Brains to be compared were processed at the same time using the same solutions to reduce variability in immunostaining caused by separate processing.
(§5) Digital photographs were taken using a light microscope (Leitz Diaplan). An investigator was blinded to the identification of the rat sections while analysis was being performed. All immunohistochemical data that were compared was processed at the same time to reduce any variation caused by differences of intensity. A grading scale was based on both observable size and intensity of staining (n=5 for each group). Also, relative optical density measurements and numbers of stained cells or accumulations were measured in entire brain areas for quantitative analysis and statistically analyzed with ANOVA and Tukey post hoc test with a significance level of P<0.05.

Male Wistar rats [2] = test: Quantitative immunohistochemistry: relative optical density and numbers of stained cells or accumulations; format: in vivo, rat; conditions: for APP Accumulation / GFAP Intensity / OX6 Intensity: vehicle (not in brackets), mean ± SEM, n = 4
Procedure: as §1, §2, §3, §4, §5

In the case of “GSNKGAIIGLM [Aβ, β-amyloid fragment (25-35), 50 nmol injected bilaterally into the lateral ventricles of rats]”, the APP immunostaining signal (Male Wistar rats [1]; Corpus Callosum) is reported as “+”, the COX-2 immunostaining signal (Male Wistar rats [1]; Corpus Callosum) is reported as “+” and the GFAP immunostaining signal (Male Wistar rats [1]; Corpus Callosum) is reported as “+”. For the same sequence, the “NKκB(p65) immunostaining signal” value (Male Wistar rats [1]; Corpus Callosum) was “+”, the OX-6 immunostaining signal (Male Wistar rats [1]; Corpus Callosum) was “+” and the TNFα immunostaining signal (Male Wistar rats [1]; Corpus Callosum) was “+”. For the same sequence, the Tau-2 immunostaining signal (Male Wistar rats [1]; Corpus Callosum) was “+”, the APP immunostaining signal (Male Wistar rats [1]; Cortex) was “+” and the COX-2 immunostaining signal (Male Wistar rats [1]; Cortex) was “+”. For the same sequence, the GFAP immunostaining signal (Male Wistar rats [1]; Cortex) was “+”, the “NKκB(p65) immunostaining signal” value (Male Wistar rats [1]; Cortex) was “+” and the OX-6 immunostaining signal (Male Wistar rats [1]; Cortex) was “+”. The TNFα immunostaining signal (Male Wistar rats [1]; Cortex) was “+”, the Tau-2 immunostaining signal (Male Wistar rats [1]; Cortex) was “+” and the APP immunostaining signal (Male Wistar rats [1]; Hippocampus) was “+”. The COX-2 immunostaining signal (Male Wistar rats [1]; Hippocampus) was “+”, the GFAP immunostaining signal (Male Wistar rats [1]; Hippocampus) was “+” and the “NKκB(p65) immunostaining signal” value (Male Wistar rats [1]; Hippocampus) was “+”. The OX-6 immunostaining signal (Male Wistar rats [1]; Hippocampus) was “+”, the Tau-2 immunostaining signal (Male Wistar rats [1]; Hippocampus) was “+” and the APP immunostaining signal (Male Wistar rats [1]; Hypothalamus) was “+”. For the same sequence, the “NKκB(p65) immunostaining signal” value (Male Wistar rats [1]; Hypothalamus) was “+”, the TNFα immunostaining signal (Male Wistar rats [1]; Hypothalamus) was “+” and the APP immunostaining signal (Male Wistar rats [1]; Striatum (right)) was “n.s”. The COX-2 immunostaining signal (Male Wistar rats [1]; Striatum (right)) was “n.s”, the Cas-3 immunostaining signal (Male Wistar rats [1]; Striatum (right)) was “n.s” and the GFAP immunostaining signal (Male Wistar rats [1]; Striatum (right)) was “+”. For the same sequence, the “NKκB(p65) immunostaining signal” value (Male Wistar rats [1]; Striatum (right)) was “n.s”, the OX-6 immunostaining signal (Male Wistar rats [1]; Striatum (right)) was “n.s” and the TNFα immunostaining signal (Male Wistar rats [1]; Striatum (right)) was “n.s”. The OX-6 immunostaining signal (Male Wistar rats [1]; Thalamus (right)) was “+”, the TNFα immunostaining signal (Male Wistar rats [1]; Thalamus (right)) was “+” and the “average numbers of OX-6-stained microglia” value (Male Wistar rats [2]; CA1 of the hippocampus) was 13.4±5.1. The “Average intensity measurements for GFAP” value (Male Wistar rats [2]; Hippocampus) was 162.9±8.7, the “APP Accumulation” value (Male Wistar rats [2]; Left Cortex) was 36.8 ± 7.8^y and the “GFAP Intensity” value (Male Wistar rats [2]; Left Hippocampus) was 167.5 ± 5.2. The “OX6 Intensity” value (Male Wistar rats [2]; Left Hippocampus) was 116.2 ± 6.7, the “APP Accumulation” value (Male Wistar rats [2]; Right Cortex) was 37.8 ± 5.4^y and the “GFAP Intensity” value (Male Wistar rats [2]; Right Hippocampus) was 166.5 ± 4.2. The “OX6 Intensity” value (Male Wistar rats [2]; Right Hippocampus) was 119.3 ± 9.1.
